≈ marks a conversion by molar mass, not a printed value.
Assays:
5 lipoxygenase = molecular target: T1, 5 lipoxygenase (Homo sapiens, UniProt P09917); assay: inhibition of 5 lipoxygenase in human blood (A23187-induced iLTB4 formation, RIA); type: cell-based; details: heparinized human blood, A23187 15 μg/ml, 30 minutes at 37° C., iLTB4 by RIA; read-out: IC50-value, concentration causing an inhibition of 50% of 5 lipoxygenase
T1 construct: endogenous in cells; host or cells: freshly drawn, heparinized human whole blood (blood leukocytes; the cell type is own knowledge)
T1 sequence (P09917 1-674): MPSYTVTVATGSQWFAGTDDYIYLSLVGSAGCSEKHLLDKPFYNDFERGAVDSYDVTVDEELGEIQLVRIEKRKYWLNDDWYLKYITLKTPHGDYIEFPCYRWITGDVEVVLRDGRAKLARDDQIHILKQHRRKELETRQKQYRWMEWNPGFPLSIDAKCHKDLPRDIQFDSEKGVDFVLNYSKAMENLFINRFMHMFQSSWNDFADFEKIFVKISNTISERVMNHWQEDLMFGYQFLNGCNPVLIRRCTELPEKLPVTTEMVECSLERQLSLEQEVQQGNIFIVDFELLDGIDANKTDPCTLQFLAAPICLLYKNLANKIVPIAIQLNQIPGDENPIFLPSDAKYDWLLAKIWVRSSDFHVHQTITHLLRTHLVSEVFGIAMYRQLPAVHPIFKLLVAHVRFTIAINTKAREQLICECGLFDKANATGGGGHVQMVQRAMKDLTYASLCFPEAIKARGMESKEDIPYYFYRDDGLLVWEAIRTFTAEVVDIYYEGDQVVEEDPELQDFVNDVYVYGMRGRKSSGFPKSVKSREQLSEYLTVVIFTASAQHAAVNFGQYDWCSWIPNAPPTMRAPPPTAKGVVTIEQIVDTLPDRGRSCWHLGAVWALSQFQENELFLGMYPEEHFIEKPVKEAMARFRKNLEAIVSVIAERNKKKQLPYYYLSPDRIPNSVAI
Description: To determine the inhibition of 5 lipoxygenase, aliquots of freshly drawn, heparinized human blood were incubated at 37° C. in a water bath with addition of either N Hydroxy-N-(thien-3-yl)methyl-acetamide in different concentrations or a solvent. After 5 minutes the calcium ionophore A23187 was added to an end concentration of 15 μg/ml blood, and the incubation was continued for 30 minutes at 37° C. Then the samples were centrifuged to collect the cell free plasma. The content of the immunoreactive leucotriene B4 (iLTB4), in each sample was determined by radioimmunoassay "RIA" (^3 H-LTB4 -RIA, Amersham) with reference to a LTB4 standard curve and was calculated as ng iLTB4 /ml plasma. The percentage inhibition caused by the acetohydroxamic acid compound of formula I at various concentrations was calculated in comparison to the aliquots incubated with solvent only. N-hydroxy-N-(thien-3-yl)methyl-acetamide has an IC50 -value, i.e. the concentration causing an inhibition of 50% of 5 lipoxygenase, of 0.3 μmolar.

cell-free 5 lipoxygenase = assay: 5 lipoxygenase activity polarographically measured in 10,000×g supernatant of homogenized rat basophilic leukemia cells; release from complex; type: biochemical; details: RBL 10,000×g supernatant, arachidonic acid 75 μM, 5 minutes at 35° C.; complex of Example 3 versus free compound
Description: To determine the rate and the extent of the release of N hydroxy-[…])methyl-acetamide from the complex prepared according to Example 3, the 5 lipoxygenase activity of cell-free 5 lipoxygenase was polarographically measured with oxygen electrodes in 10,000×g supernatant from homogenized rat basophilic leukemia cells (RBL i cells). After incubation of the 10,000×g supernatant with arachidonic acid (75 μM), adenosine triphosphate (4 mM), glutathione (4 mM), and either N hydroxy-[…])methyl-acetamide or a solvent for 5 minutes at 35° C., the lipoxygenase reaction was initiated by addition of calcium chloride and plotted simultaneously. The evaluation included the duration of the lag-phase as well as the initial rate of the reaction after the lag-phase. […] A significant amount of the acetohydroxamic acid compound is fully available in the biological test system even when the compound is originally administered in the form of a complex.

cyclooxygenase = molecular target: T2, cyclooxygenase (Ovis aries, UniProt P05979); assay: activity of cyclooxygenase in sheep seminal vesicle microsomes ([14C]-arachidonic acid, TLC); type: biochemical; details: potassium phosphate buffer pH 7.0
T2 sequence (P05979 25-600): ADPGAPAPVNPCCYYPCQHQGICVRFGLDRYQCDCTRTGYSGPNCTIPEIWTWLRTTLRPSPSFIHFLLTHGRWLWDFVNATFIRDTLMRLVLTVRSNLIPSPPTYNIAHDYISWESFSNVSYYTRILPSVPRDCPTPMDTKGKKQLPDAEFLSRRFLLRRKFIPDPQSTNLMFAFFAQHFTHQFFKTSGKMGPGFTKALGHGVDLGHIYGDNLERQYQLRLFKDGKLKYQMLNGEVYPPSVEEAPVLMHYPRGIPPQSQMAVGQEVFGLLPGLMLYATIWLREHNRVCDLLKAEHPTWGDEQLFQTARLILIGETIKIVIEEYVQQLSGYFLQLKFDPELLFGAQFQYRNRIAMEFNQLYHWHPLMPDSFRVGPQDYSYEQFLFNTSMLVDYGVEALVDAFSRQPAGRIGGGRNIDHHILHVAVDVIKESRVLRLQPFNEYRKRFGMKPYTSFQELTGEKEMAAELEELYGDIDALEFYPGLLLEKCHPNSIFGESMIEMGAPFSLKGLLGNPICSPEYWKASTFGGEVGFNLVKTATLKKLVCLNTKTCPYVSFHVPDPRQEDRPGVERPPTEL
Description: The effect of the acetohydroxamic acid compound of formula I on the activity of cyclooxygenase was tested using a suspension of sheep seminal vesicle microsomes in […] of potassium phosphate buffer of pH 7.0 which was incubated either with N-hydroxy-N-(thien-3-yl)methyl-acetamide or with a solvent only and [^14 C]-arachidonic acid. The IC50 values, i.e. the concentrations causing an inhibition of 50% of cyclooxygenase were determined by thin layer chromatography using a TLC-linear-analyzer.

5-lipoxygenase = assay: ex vivo iLTB4-formation in whole blood of rats after oral administration (bioavailability); design: species or system rat (Wistar strain, male)
Description: The bioavailability of the compound of formula I was characterized by means of an ex vivo biochemical assessment method described by Tateson et al. in Brit. J. Pharmacol. 528 (1988): N-Hydroxy-N-(thien-3-yl)methyl-acetamide was orally administered in a dose of 21.5 mg/kg to male rats (Wistar strain). One hour later blood was taken from the rats in lethal CO2 -narcosis. Aliquots of the blood were incubated for 30 minutes at 37° C. in a water bath with addition of calcium ionophore A 23 187 to an end concentration of 15 μg/ml. At the end of the incubation the samples were centrifuged to collect the cell free plasma. The concentration of the immunoreactive LTB4 (iLTB4 ng/ml) in each plasma sample was determined by radioimmunoassay (^3 H-LTB4 -RIA, Amersham) by means of a LTB4 -standard curve in diluted rat plasma. To determine the percent inhibition of ex vivo iLTB4 -formation in whole blood of rats treated with the compound of formula I, rats orally treated with an appropriate vehicle solution were included in all experiments, aliquots of their blood were run in parallel and were processed in the same manner as described. The mean iLTB4 formation per ml plasma of these vehicle treated rats served as the 100% value of normal 5-lipoxygenase activity. The percent inhibition of the ex vivo iLTB4 -formation after oral administration of the compound of formula I was calculated according to the following formula: […]
where Q represents the mean iLTB4 content in ng […] per ml plasma of the rats treated with the compound of formula I and C represents the mean iLTB4 content in ng iLTB4 per ml plasma of rats treated only with the vehicle.

guinea pigs = assay: antiasthmatic effect: ovalbumin-induced bronchoconstriction in anesthetized, ventilated, passively sensitized guinea pigs (Konzett-Roessler); type: in vivo, guinea pig
Description: The antiasthmatic effect of the compound according to the invention was tested in anesthetized and ventilated guinea pigs. In order to induce an asthmatic reaction, the animals were passively sensitized with a single intraperitoneal injection of antiovalbumin serum. After 48 hours the asthmatic reaction was elicited by intravenous challenge with 0.2 mg/kg of ovalbumin. The immediately resulting bronchoconstriction was measured as an increase in overflow according to the Konzett-Roessler method for a period of 10 minutes (Naunyn Schiedeberg's Arch. Exp. Path. Pharma. Vol. 195, 71-74 (1940)). Effects caused by histamine, serotonin and sympathic counterreaction were eliminated by intravenous pretreatment with 2.15 mg/kg of mepyramine, […] of propranolol, 4.64 mg/kg of atropine and 1 mg/kg of methysergide, all given 5 minutes before challenge. N-Hydroxy-N-(thien-3-yl)methyl-acetamide was orally administered 60 minutes before, intravenously administered 30 minutes before, and locally administered 2 minutes before the administration of ovalbumin.

[1] = tested on: isolated tracheal strips of guinea pigs; assay: anti-anaphylactic effect: ovalbumin-induced anaphylactic constrictions of isolated tracheal strips; type: cell-based, guinea pig; details: Cavia porcellus; tracheal strips of actively sensitized guinea pigs, with mepyramine and indomethacin, 37° C.; Example 3 based on the complexed N-hydroxy-N-(thien-3-yl)methyl-acetamide content; read-out: IC50-value, inhibition of 50% of the anaphylactic constrictions
Description: The anti-anaphylactic effect of N-hydroxy-[…])methyl-acetamide was tested using an in vitro model. […] The organs were connected to isometric force transducers. After incubation with mepyramine (elimination of histamine) and indomethacin (inhibition of cyclooxygenase resulting in an increase of the anaphylactic reaction) ovalbumin was added to the organ bath in cumulatively increasing concentrations. The resulting anaphylactic constrictions were inhibited by N-hydroxy-[…])methyl-acetamide which was added to the organ bath before the anaphylactic constrictions were elicited.

solubility = type: physicochemical
toxicity = details: observed only at far higher doses than therapeutic or prophylactic doses

## CC(=O)N(O)Cc1ccsc1 [Example 1, N-hydroxy-N-(thien-3-yl)methyl-acetamide]
5 lipoxygenase
  IC50: 0.3 µM
cell-free 5 lipoxygenase
  inhibition of the 5 lipoxygenase reaction: comparable effects
  prolongation of the lag-phase of the 5 lipoxygenase reaction: comparable effects
cyclooxygenase
  IC50-values for the inhibition of cyclooxygenase compared with IC50-values for 5-lipoxygenase: significantly higher than the IC50 -values for the inhibition of 5-lipoxygenase
5-lipoxygenase; 21.5 mg/kg oral, male Wistar rats, blood taken one hour later, A23187 15 μg/ml
  percent inhibition of the ex vivo iLTB4-formation: 95%
5-lipoxygenase; oral, 21.5 mg/kg, rats, concluded from ex vivo iLTB4 inhibition
  oral availability: excellent oral availability
5-lipoxygenase; oral, rats, ex vivo iLTB4-formation, 60 min
  calculated dose with a semi-maximum inhibiting effect after oral administration: 5.6 mg/kg
Guinea pigs; 21.5 mg/kg oral, 60 minutes before ovalbumin
  inhibition of bronchoconstriction: 42%
Guinea pigs; oral 21.5 mg/kg (free) versus intravenous 21.5 mg/kg (complex), guinea pigs
  resorption of the acetohydroxamic acid compound: high resorption
[1]
  IC50: 10.2 µM
solubility; organic solvent or mixture, water/ethanol 4:1 mixture
  solubility: 3000 µg/mL (≈ 17.5 mM)
solubility; phosphate buffer/ethanol 4:1, organic solvent or mixture, phosphate buffer (pH 7.4)/ethanol, 4:1 mixture
  solubility: 3000 µg/mL (≈ 17.5 mM)
toxicity
  degree of toxicity: low degree of toxicity

Reference: patent publication US5252562A, “Acetohydroxamic compound and complexes pharmaceutical compositions containing them and processes of preparation and use” (Gruenenthal GmbH, priority 1991, dated 1993)
